Results from US11584726B2 (Beijing Foreland Pharma Co., Ltd., priority 2017, dated 2023).

Key:
[1] = tested on: CD19 on peripheral blood cell; experiment: Effects on the expression of CD19 on peripheral blood cell in mice (flow cytometry); assay type: in vivo, mice (C57 BL/6); conditions: intragastric, once a day for four days, mouse peripheral blood
Method: (§1) FITC Rat Anti-Mouse CD8a: BD, Cat. #553030.
(§2) PE Rat Anti-Mouse CD4: BD, Cat. #557308.
(§3) APC Rat Anti-Mouse CD19: BD, Cat. #561738.
(§4) The compounds used in the test were prepared by the chemical department of Beijing Forelandpharma Co. Ltd.
(§5) Routs of administration: intragastric administration, once a day, and continuous administration for four days.
(§6) After the administration, supraorbital venous blood was collected from the mouse, added to an EP tube (1.5 ml) containing an anticoagulant, and kept on the ice. The resulting mixture was transferred to a test tube, centrifuged at 4° C. and 1200 rpm/min for 5 min, removed with the supernatant liquid, added with a lysate, processed with cell lysis on the ice for 5 min, then pre-dyed, added with diluted antibody, and incubated away from light for 30 min. After the incubation, the resulting mixture was washed, removed with the supernatant liquid, added with stationary liquid, and kept in a refrigerator at 4° C. away from light for the test of flow cytometry.

[2] = tested on: CD4 on peripheral blood cell; experiment: Effects on the expression of CD4 on peripheral blood cell in mice (flow cytometry); assay type: in vivo, mice (C57 BL/6); conditions: intragastric, once a day for four days, mouse peripheral blood
Method: as §1, §2, §3, §4, §5, §6

[3] = tested on: CD8 on peripheral blood cell; experiment: Effects on the expression of CD8 on peripheral blood cell in mice (flow cytometry); assay type: in vivo, mice (C57 BL/6); conditions: intragastric, once a day for four days, mouse peripheral blood
Method: as §1, §2, §3, §4, §5, §6

S1P3 = S1P3 (Homo sapiens (Human), UniProt Q99500); experiment: PathHunter β-arrestin test S1P3; assay type: cell-based; conditions: PathHunter β-arrestin engineering cells
Method: (§7) 1. PathHunter β-arrestin testing system was used to detect the biological activity of the compounds.
(§8) 2. β-arrestin engineering cells were cultured on […] culture plates and placed in an incubator at 37° C.
(§9) 3. The sample to be tested was diluted with reaction solution in 5-fold dilution.
(§10) 4. The diluted sample to be tested was added to the engineering cells and the reaction was induced and observed.
(§11) 5. The chemiluminescence signal produced in the test may be detected by multifunctional enzyme marker (PerkinElmer Envision™).
(§12) Test Analysis and Results
(§13) 6. The data obtained was analyzed using the data analysis software of CBIS (ChemInnovation, CA) to achieve EC50, and the test results are shown in Table 2.

hERG potassium channel = hERG potassium channel (Homo sapiens (Human), UniProt Q12809); experiment: hERG patch clamp test in HEK293 engineering cells; assay type: cell-based; conditions: HEK293 cells stably expressing hERG potassium channel
Method: 1. HEK293 engineering cells stably expressed with hERG potassium channel were used to test the compounds.
The cells were separated by TrypLE™ Express before the test. 3×10^3 of cells were spread on a cover plate, cultured in 24-well plate and tested 18 hours later. The signals produced by voltage stimulation of potassium currents in cells were recorded by electrophysiological techniques.
Data Analysis and Results
First of all, currents after the action of drug of each concentration and blank control were standardized separately
[formula] and then the corresponding inhibition ratio of each concentration was calculated
[formula] The average and the standard error were calculated for each concentration, and 50% inhibiting concentration of each compound was calculated according to the following equation: […]
The dose-dependent effect was obtained through nonlinear fitting with the equation above. C refers to drug concentration, IC50 refers to 50% inhibiting concentration and h refers to hill coefficient. The curve fitting and the calculation of IC50 were processed by IGOR software.

S1P4 = S1P4 (Homo sapiens (Human), UniProt O95977); experiment: PathHunter β-arrestin test S1P4; assay type: cell-based; conditions: PathHunter β-arrestin engineering cells
Method: as §7, §8, §9, §10, §11, §12, §13

S1P5 = S1P5 (Homo sapiens (Human), UniProt Q9H228); experiment: Fluorescence detection FLIPR assay, activation of GPCR (S1P5); assay type: cell-based; conditions: total detection time 180 s, read-out: FLIPR Test EC50 S1P5
Method: The sample to be tested was dissolved in DMSO and diluted with detection buffer solution in 3-fold dilution. A reagent and a positive control were diluted in the same way.
The reactions of the agonist, the reagent and the positive control were detected by a device of […] with a total detection time of 180 s to estimate the ability to activate GPCR (S1P5) of each compound.

S1P1 = S1P1 (Homo sapiens (Human), UniProt P21453); experiment: PathHunter β-arrestin test S1P1; assay type: cell-based; conditions: PathHunter β-arrestin engineering cells
Method: as §7, §8, §9, §10, §11, §12, §13

S1P2 = S1P2 (Homo sapiens (Human), UniProt O95136); experiment: PathHunter β-arrestin test S1P2; assay type: cell-based; conditions: PathHunter β-arrestin engineering cells
Method: as §7, §8, §9, §10, §11, §12, §13

Chain of S1P3 (Q99500 whole entry, species assumed): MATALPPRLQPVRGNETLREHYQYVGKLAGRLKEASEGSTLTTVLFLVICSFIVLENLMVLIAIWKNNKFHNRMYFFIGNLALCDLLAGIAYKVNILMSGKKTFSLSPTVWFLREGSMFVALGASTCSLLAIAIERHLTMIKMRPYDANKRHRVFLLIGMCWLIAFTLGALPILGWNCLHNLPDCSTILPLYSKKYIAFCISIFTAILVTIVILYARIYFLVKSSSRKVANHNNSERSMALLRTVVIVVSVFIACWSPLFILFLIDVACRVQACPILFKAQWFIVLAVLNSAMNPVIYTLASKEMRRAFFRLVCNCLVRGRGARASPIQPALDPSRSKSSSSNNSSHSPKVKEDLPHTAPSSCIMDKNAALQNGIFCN
Chain of S1P4 (O95977 whole entry, species assumed): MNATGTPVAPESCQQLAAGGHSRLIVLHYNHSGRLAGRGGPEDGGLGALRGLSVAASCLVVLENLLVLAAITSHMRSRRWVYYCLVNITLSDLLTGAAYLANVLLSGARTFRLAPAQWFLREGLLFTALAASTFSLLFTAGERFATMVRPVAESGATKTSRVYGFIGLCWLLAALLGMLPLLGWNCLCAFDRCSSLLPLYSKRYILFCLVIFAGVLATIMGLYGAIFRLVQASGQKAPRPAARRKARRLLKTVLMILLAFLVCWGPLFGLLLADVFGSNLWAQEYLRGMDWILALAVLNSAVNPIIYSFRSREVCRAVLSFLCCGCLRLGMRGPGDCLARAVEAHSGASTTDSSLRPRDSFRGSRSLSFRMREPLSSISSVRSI
Chain of S1P1 (P21453 whole entry, species assumed): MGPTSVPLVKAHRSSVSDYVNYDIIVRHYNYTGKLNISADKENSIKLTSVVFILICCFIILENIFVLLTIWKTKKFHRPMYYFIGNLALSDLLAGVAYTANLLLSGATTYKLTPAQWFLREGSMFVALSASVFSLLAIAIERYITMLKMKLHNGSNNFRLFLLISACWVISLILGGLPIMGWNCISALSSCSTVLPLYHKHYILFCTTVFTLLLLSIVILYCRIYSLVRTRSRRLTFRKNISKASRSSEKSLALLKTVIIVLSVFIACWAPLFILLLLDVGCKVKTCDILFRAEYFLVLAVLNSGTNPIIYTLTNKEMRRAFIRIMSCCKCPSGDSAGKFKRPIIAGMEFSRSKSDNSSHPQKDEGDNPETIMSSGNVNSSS
Chain of S1P2 (O95136 whole entry, species assumed): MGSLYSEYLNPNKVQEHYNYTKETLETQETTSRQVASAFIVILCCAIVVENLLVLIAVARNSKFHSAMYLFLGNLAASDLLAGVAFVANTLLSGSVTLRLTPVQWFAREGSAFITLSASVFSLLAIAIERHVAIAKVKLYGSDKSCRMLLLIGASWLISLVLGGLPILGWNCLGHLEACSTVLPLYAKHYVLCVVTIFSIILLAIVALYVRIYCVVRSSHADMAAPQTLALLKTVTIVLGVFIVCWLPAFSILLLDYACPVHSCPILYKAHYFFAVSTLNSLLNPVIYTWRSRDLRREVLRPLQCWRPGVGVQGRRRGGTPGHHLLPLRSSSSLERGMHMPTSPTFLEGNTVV
Chain of S1P5 (Q9H228 whole entry, species assumed): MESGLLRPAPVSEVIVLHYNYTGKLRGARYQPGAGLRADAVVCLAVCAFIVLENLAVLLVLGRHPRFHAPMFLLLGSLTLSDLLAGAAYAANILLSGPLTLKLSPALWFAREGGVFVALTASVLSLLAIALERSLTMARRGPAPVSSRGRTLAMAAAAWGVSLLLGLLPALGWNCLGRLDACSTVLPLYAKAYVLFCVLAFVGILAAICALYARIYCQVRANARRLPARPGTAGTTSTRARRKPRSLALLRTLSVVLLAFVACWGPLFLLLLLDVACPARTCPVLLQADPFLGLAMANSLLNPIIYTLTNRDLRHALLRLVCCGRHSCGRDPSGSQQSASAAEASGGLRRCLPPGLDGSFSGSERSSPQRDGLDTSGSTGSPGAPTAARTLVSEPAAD
Chain of hERG potassium channel (Q12809 whole entry): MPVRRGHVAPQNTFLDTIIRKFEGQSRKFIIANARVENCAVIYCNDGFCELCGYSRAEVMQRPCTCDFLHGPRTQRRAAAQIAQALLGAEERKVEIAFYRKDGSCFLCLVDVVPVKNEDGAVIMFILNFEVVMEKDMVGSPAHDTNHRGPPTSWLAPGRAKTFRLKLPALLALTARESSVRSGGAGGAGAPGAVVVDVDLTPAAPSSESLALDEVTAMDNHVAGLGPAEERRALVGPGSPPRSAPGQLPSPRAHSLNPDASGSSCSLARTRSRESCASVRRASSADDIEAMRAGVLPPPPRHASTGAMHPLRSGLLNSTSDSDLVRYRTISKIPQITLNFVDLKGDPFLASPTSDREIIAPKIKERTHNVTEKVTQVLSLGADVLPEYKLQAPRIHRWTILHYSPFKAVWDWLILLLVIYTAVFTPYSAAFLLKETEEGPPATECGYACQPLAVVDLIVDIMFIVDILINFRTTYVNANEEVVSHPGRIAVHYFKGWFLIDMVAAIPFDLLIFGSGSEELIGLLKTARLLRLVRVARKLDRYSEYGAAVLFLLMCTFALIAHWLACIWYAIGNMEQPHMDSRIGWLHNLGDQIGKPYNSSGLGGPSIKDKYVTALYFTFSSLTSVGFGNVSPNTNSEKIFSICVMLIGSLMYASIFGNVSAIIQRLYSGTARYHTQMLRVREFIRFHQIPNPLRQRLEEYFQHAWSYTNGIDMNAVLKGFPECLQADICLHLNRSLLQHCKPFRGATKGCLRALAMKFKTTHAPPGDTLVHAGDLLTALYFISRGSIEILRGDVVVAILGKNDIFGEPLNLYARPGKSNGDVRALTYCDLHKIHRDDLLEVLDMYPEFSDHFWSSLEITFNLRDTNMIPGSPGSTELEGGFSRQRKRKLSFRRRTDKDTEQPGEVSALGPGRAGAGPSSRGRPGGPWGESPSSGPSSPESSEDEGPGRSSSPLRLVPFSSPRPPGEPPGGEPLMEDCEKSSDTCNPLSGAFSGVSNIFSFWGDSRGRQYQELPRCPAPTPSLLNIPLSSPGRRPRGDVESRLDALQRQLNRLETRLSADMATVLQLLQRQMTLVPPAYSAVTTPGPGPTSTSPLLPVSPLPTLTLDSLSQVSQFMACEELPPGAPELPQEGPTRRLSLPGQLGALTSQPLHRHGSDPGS

Row | Structure (SMILES) | CD19 (%) ([1]; 1 mg/kg) | CD19 (%) ([1]; 5 mg/kg) | CD4 (%) ([2]; 1 mg/kg) | CD4 (%) ([2]; 5 mg/kg) | CD8 (%) ([3]; 1 mg/kg) | CD8 (%) ([3]; 5 mg/kg) | EC50 (S1P3) [nM] | IC50 (hERG potassium channel) [nM] | EC50 (S1P4) [nM] | EC50 (S1P5) [nM] | EC50 (S1P1) [nM] | EC50 (S1P2) [nM]
1 | COc1ccc(-c2nnc(-c3ccc4c(c3)C[C@](N)(CO)CC4)o2)cc1C(F)(F)F [Example 6, (S)-(2-amino-7-(5-(4-methoxy-3-(trifluoromethyl)phenyl)-1,3,4-oxadiazol-2-yl)-1,2,3,4-tetrahydronaphthalen-2-yl)methanol] | 34.0 | 29.1 | 17.8 | 8.7 | 17.0 | 5.7 | – | – | – | – | – | –
2 | N[C@@]1(CO)CCc2ccc(-c3nnc(-c4ccc(C(F)(F)F)c(F)c4)o3)cc2C1 [Example 11, (S)-(2-amino-7-(5-(3-fluoro-4-(trifluoromethyl)phenyl)-1,3,4-oxadiazol-2-yl)-1,2,3,4-tetrahydronaphthalen-2-yl)methanol] | 52.1 | 54.0 | 23.5 | 20.5 | 14.9 | 13.8 | – | – | – | – | – | –
3 | CC(C)Oc1ccc(-c2nnc(-c3ccc4c(c3)C[C@](N)(CO)CC4)o2)cc1C(N)=O [Example 4, (S)-5-(5-(7-amino-7-(hydroxymethyl)-5,6,7,8-tetrahydronaphthalen-2-yl)-1,3,4-oxadiazol-2-yl)-2-isopropoxybenzamide] | 47.1 | 43.6 | 27.1 | 27.0 | 14.5 | 12.3 | – | – | – | – | – | –
4 | N[C@@]1(CO)CCc2ccc(-c3nnc(-c4cc(C(F)(F)F)cc(C(F)(F)F)c4)o3)cc2C1 [Example 12, (S)-(2-amino-7-(5-(3,5-bis(trifluoromethyl)phenyl)-1,3,4-oxadiazol-2-yl)-1,2,3,4-tetrahydronaphthalen-2-yl)methanol] | 53.2 | 38.1 | 15.2 | 2.8 | 9.6 | 3.4 | – | – | – | – | – | –
5 | N[C@@]1(CO)CCc2ccc(-c3nnc(-c4ccc(F)c(F)c4)o3)cc2C1 [Example 7, (S)-(2-amino-7-(5-(3,4-difluorophenyl)-1,3,4-oxadiazol-2-yl)-1,2,3,4-tetrahydronaphthalen-2-yl)methanol] | 45.2 | 40.6 | 26.5 | 13.4 | 14.5 | 9.2 | – | – | – | – | – | –
6 | CC(C)Oc1ccc(-c2nnc(-c3ccc4c(c3)C[C@](N)(CO)CC4)o2)cc1F [Example 1, (S)-(2-amino-7-(5-(3-fluoro-4-isopropoxyphenyl)-1,3,4-oxadiazol-2-yl)-1,2,3,4-tetrahydronaphthalen-2-yl)methanol] | 39.0 | 17.5 | 10.9 | 1.2 | 10.0 | 1.8 | – | – | – | – | – | –
7 | CC(C)Oc1ccc(-c2nnc(-c3ccc4c(c3)C[C@](N)(CO)CC4)o2)cc1C#N [Example 3, (S)-5-(5-(7-amino-7-(hydroxymethyl)-5,6,7,8-tetrahydronaphthalen-2-yl)-1,3,4-oxadiazol-2-yl)-2-isopropoxybenzonitrile] | 39.3 | 24.7 | 22.1 | 7.2 | 11.9 | 6.1 | 2110 | 7800 | > 100000 | 250 | 4.56 | > 100000
8 | N[C@@]1(CO)CCc2ccc(-c3nnc(-c4ccc5c(c4)OCO5)o3)cc2C1 [Example 2] | 44.8 | 35.2 | 23.1 | 16.4 | 13.0 | 8.6 | – | – | – | – | – | –
9 | COc1ccc(-c2nnc(-c3ccc4c(c3)C[C@](N)(CO)CC4)o2)cc1F [Example 8, (S)-(2-amino-7-(5-(3-fluoro-4-methoxyphenyl)-1,3,4-oxadiazol-2-yl)-1,2,3,4-tetrahydronaphthalen-2-yl)methanol] | 36.8 | 41.7 | 33.4 | 30.0 | 16.6 | 16.0 | – | – | – | – | – | –
10 | CCOc1ccc(-c2nnc(-c3ccc4c(c3)C[C@](N)(CO)CC4)o2)cc1OCC [Example 13, (S)-(2-amino-7-(5-(3,4-diethoxyphenyl)-1,3,4-oxadiazol-2-yl)-1,2,3,4-tetrahydronaphthalen-2-yl)methanol] | 56.8 | 53.8 | 23.4 | 11.6 | 12.7 | 9.4 | 613 | – | > 100000 | > 10000 | 21.6 | > 100000
11 | CCCCCCCCCCCCC/C=C/[C@@H](O)[C@@H](N)COP(=O)(O)O [Example S1P, sphingosine-1-phosphate, reference compound] | – | – | – | – | – | – | 26.3 | – | 190 | – | 25.2 | –
12 | CC(C)Oc1ccc(-c2nnc(-c3ccc4c(c3)C[C@](N)(CO)CC4)o2)cc1C(F)(F)F [Example 14, (S)-(2-amino-7-(5-(4-isopropoxy-3-(trifluoromethyl)phenyl)-1,3,4-oxadiazol-2-yl)-1,2,3,4-tetrahydronaphthalen-2-yl)methanol] | – | – | – | – | – | – | – | 870 | – | – | – | –
13 | CC(=O)Nc1ccc(-c2nnc(-c3ccc4c(c3)C[C@](N)(CO)CC4)o2)cc1 [Example 9, (S)—N-(4-(5-(7-amino-7-(hydroxymethyl)-5,6,7,8-tetrahydronaphthalen-2-yl)-1,3,4-oxadiazol-2-yl)phenyl)acetamide] | 42.5 | 44.3 | 33.1 | 31.9 | 17.3 | 17.0 | – | – | – | – | – | –
14 | N#Cc1cc(-c2nnc(-c3ccc4c(c3)C[C@](N)(CO)CC4)o2)ccc1O [Example 5, (S)-5-(5-(7-amino-7-(hydroxymethyl)-5,6,7,8-tetrahydronaphthalen-2-yl)-1,3,4-oxadiazol-2-yl)-2-hydroxybenzonitrile] | 44.3 | 43.8 | 31.5 | 27.1 | 16.8 | 14.7 | – | – | – | – | – | –
